This experiment relates to SARS-CoV-2 (D614G). In kind it is cell-based. Particulars: 10 µM.

For the compound `CN(C)C(=O)COC(=O)Cc1ccc(OC(=O)c2ccc(NC(=N)N)cc2)cc1` [Camostat, camostat], the “Percentage of infection inhibition” value is 85%.

Values taken from PMC12658903 (RSC Medicinal Chemistry, 2025).
